Earlier results as cited in patent US20130064888A1, “PHARMACEUTICAL FORMULATIONS” (priority 2011, published 2013).

Columns and labels:
[1] = at 25° C.; practically insoluble in water
[2] = many organic solvents, including ethanol

In the case of “5-chloro-N-({(5S)-2-oxo-3-[4-(3-oxo-4-morpholinyl)-phenyl]-1,3-oxaolidin-5-yl}methyl-2-thiophencarboxamide [Rivaroxaban]”, the water solubility [1] is listed as less than 100 µg/mL and the “solubility in organic solvents” value [2] is listed as “low solubility”.
